# Experimental data: PubChem BioAssay (NCI)
#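 1) Cells in 96-well plates. 2) Compound, 48 h, 5 concentrations. 3) Linear interpolation between surrounding doses. 4) Unreached endpoint = highest concentration. TGI marks complete inhibition of growth.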
# Key:
# Test in all cases: NCI-60 cell line screen, 48 h
# [1] = system: A498 renal
# [2] = system: A549 NSCLC
# [3] = system: ACHN renal
# [4] = system: CCRF-CEM leukemia
# [5] = system: DMS 114 small cell lung
# [6] = system: EKVX NSCLC
# [7] = system: HCT-116 colon
# [8] = system: HL-60(TB) leukemia
# [9] = system: HOP-62 NSCLC
# [10] = system: HOP-92 NSCLC
# [11] = system: HT29 colon
# [12] = system: IGROV1 ovarian
# [13] = system: KM12 colon
# [14] = system: KM20L2 colon
# [15] = system: M14 melanoma
# [16] = system: M19-MEL melanoma
# [17] = system: MOLT-4 leukemia
# [18] = system: NCI-H23 lung
# [19] = system: NCI-H460 lung
# [20] = system: NCI-H522 lung
# [21] = system: OVCAR-5 ovarian
# [22] = system: OVCAR-8 ovarian
# [23] = system: RXF 393 renal
# [24] = system: RXF-631 renal
# [25] = system: SF-295 CNS
# [26] = system: SK-MEL-28 melanoma
# [27] = system: SK-OV-3 ovarian
# [28] = system: SNB-19 CNS
# [29] = system: SNB-78 CNS
# [30] = system: SR leukemia
# [31] = system: TK-10 renal
# [32] = system: U251 CNS
# [33] = system: UACC-257 melanoma
# [34] = system: UACC-62 melanoma
# [35] = system: UO-31 renal
# [36] = system: 786-0 renal
# [37] = system: CAKI-1 renal
# [38] = system: COLO 205 colon
# [39] = system: DLD-1 colon
# [40] = system: DMS 273 small cell lung
# [41] = system: HCC-2998 colon
# [42] = system: HCT-15 colon
# [43] = system: K-562 leukemia
# [44] = system: LOX IMVI melanoma
# [45] = system: LXFL 529 NSCLC
# [46] = system: MALME-3M melanoma
# [47] = system: NCI-H226 lung
# [48] = system: OVCAR-3 ovarian
# [49] = system: OVCAR-4 ovarian
# [50] = system: RPMI-8226 leukemia
# [51] = system: SK-MEL-2 melanoma
# [52] = system: SK-MEL-5 melanoma
# [53] = system: SN12C renal
# [54] = system: SW-620 colon
# [55] = system: XF 498 CNS
# [56] = system: BT-549 breast
# [57] = system: DU-145 prostate
# [58] = system: HOP-18 NSCLC
# [59] = system: HS 578T breast
# [60] = system: MCF7 breast
# [61] = system: MDA-MB-231 breast
# [62] = system: MDA-MB-435
# [63] = system: MDA-N
# [64] = system: NCI/ADR-RES ovarian
# [65] = system: PC-3 prostate
# [66] = system: SF-268 CNS
# [67] = system: SF-539 CNS
# [68] = system: SNB-75 CNS
# [69] = system: T-47D breast
smiles,measurement,setting,value
COc1ccc(C(=O)O)c2c(=O)c3cccnc3[nH]c12,TGI,[1],> 100 µM
same,TGI,[2],> 100 µM
same,TGI,[3],> 100 µM
same,TGI,[4],> 100 µM
same,TGI,[5],> 100 µM
same,TGI,[6],> 100 µM
same,TGI,[7],> 100 µM
same,TGI,[8],> 100 µM
same,TGI,[9],> 100 µM
same,TGI,[10],> 100 µM
same,TGI,[11],> 100 µM
same,TGI,[12],> 100 µM
same,TGI,[13],> 100 µM
same,TGI,[14],> 100 µM
same,TGI,[15],> 100 µM
same,TGI,[16],> 100 µM
same,TGI,[17],> 100 µM
same,TGI,[18],> 100 µM
same,TGI,[19],> 100 µM
same,TGI,[20],> 100 µM
same,TGI,[21],> 100 µM
same,TGI,[22],> 100 µM
same,TGI,[23],> 100 µM
same,TGI,[24],> 100 µM
same,TGI,[25],> 100 µM
same,TGI,[26],> 100 µM
same,TGI,[27],> 100 µM
same,TGI,[28],> 100 µM
same,TGI,[29],> 100 µM
same,TGI,[30],> 100 µM
same,TGI,[31],> 100 µM
same,TGI,[32],> 100 µM
same,TGI,[33],> 100 µM
same,TGI,[34],> 100 µM
same,TGI,[35],> 100 µM
O=C(NCCCCCCNC(=O)OCCSCCn1cc(C(=O)NC(=O)OCc2ccccc2)c(=O)[nH]c1=O)OCCSCCn1cc(C(=O)NC(=O)OCc2ccccc2)c(=O)[nH]c1=O,TGI,[36],> 100 µM
same,TGI,[1],> 100 µM
same,TGI,[2],> 100 µM
same,TGI,[3],> 100 µM
same,TGI,[37],> 100 µM
same,TGI,[4],> 100 µM
same,TGI,[38],> 100 µM
same,TGI,[39],> 100 µM
same,TGI,[5],> 100 µM
same,TGI,[40],> 100 µM
same,TGI,[6],> 100 µM
same,TGI,[41],> 100 µM
same,TGI,[42],> 100 µM
same,TGI,[9],> 100 µM
same,TGI,[10],> 100 µM
same,TGI,[11],> 100 µM
same,TGI,[12],> 100 µM
same,TGI,[43],> 100 µM
same,TGI,[13],> 100 µM
same,TGI,[14],> 100 µM
same,TGI,[44],> 100 µM
same,TGI,[45],> 100 µM
same,TGI,[15],> 100 µM
same,TGI,[16],> 100 µM
same,TGI,[46],> 100 µM
same,TGI,[17],> 100 µM
same,TGI,[47],> 100 µM
same,TGI,[18],> 100 µM
same,TGI,[19],> 100 µM
same,TGI,[20],> 100 µM
same,TGI,[48],> 100 µM
same,TGI,[49],> 100 µM
same,TGI,[21],> 100 µM
same,TGI,[22],> 100 µM
same,TGI,[50],> 100 µM
same,TGI,[23],> 100 µM
same,TGI,[24],> 100 µM
same,TGI,[25],> 100 µM
same,TGI,[51],> 100 µM
same,TGI,[52],> 100 µM
same,TGI,[53],> 100 µM
same,TGI,[28],> 100 µM
same,TGI,[29],> 100 µM
same,TGI,[54],> 100 µM
same,TGI,[31],> 100 µM
same,TGI,[32],> 100 µM
same,TGI,[33],> 100 µM
same,TGI,[34],> 100 µM
same,TGI,[35],> 100 µM
same,TGI,[55],> 100 µM
Nc1ccc(S(=O)(=O)Nc2ccc(Nc3c4ccccc4nc4ccccc34)cc2)cc1,TGI,[36],0.352 µM
same,TGI,[1],1.14 µM
same,TGI,[2],0.919 µM
same,TGI,[3],0.149 µM
same,TGI,[56],0.981 µM
same,TGI,[37],0.517 µM
same,TGI,[4],> 4.64 µM
same,TGI,[38],14.9 µM
same,TGI,[39],16.6 µM
same,TGI,[5],1.9 µM
same,TGI,[40],3.08 µM
same,TGI,[57],0.0188 µM
same,TGI,[6],14.7 µM
same,TGI,[41],8.2 µM
same,TGI,[7],15.6 µM
same,TGI,[42],17.7 µM
same,TGI,[8],0.183 µM
same,TGI,[58],16.1 µM
same,TGI,[9],0.0805 µM
same,TGI,[10],4.84 µM
same,TGI,[59],54.7 µM
same,TGI,[11],5.4 µM
same,TGI,[12],19.7 µM
same,TGI,[43],17 µM
same,TGI,[13],4.59 µM
same,TGI,[14],10.6 µM
same,TGI,[44],1.51 µM
same,TGI,[45],20.6 µM
same,TGI,[15],17.5 µM
same,TGI,[16],21.1 µM
same,TGI,[46],10.8 µM
same,TGI,[60],16 µM
same,TGI,[61],22.1 µM
same,TGI,[62],53 µM
same,TGI,[63],22.8 µM
same,TGI,[47],0.851 µM
same,TGI,[18],0.732 µM
same,TGI,[19],2.11 µM
same,TGI,[20],3.95 µM
same,TGI,[64],19.8 µM
same,TGI,[48],4.57 µM
same,TGI,[49],17.1 µM
same,TGI,[21],12.9 µM
same,TGI,[22],10 µM
same,TGI,[65],17.4 µM
same,TGI,[50],4.06 µM
same,TGI,[23],13.7 µM
same,TGI,[24],10.8 µM
same,TGI,[66],13.8 µM
same,TGI,[25],1.03 µM
same,TGI,[67],0.362 µM
same,TGI,[51],15.9 µM
same,TGI,[26],20.8 µM
same,TGI,[52],2 µM
same,TGI,[27],0.501 µM
same,TGI,[53],0.628 µM
same,TGI,[28],9.54 µM
same,TGI,[68],0.963 µM
same,TGI,[29],26.2 µM
same,TGI,[30],0.533 µM
same,TGI,[54],14.3 µM
same,TGI,[69],31.5 µM
same,TGI,[31],9.55 µM
same,TGI,[32],4.94 µM
same,TGI,[33],20.2 µM
same,TGI,[34],3.66 µM
same,TGI,[35],4.24 µM
same,TGI,[55],20.6 µM
Cn1c(Cl)cn2c3nc4ccccc4nc3c(=O)c(C#N)c12,TGI,[36],> 100 µM
same,TGI,[1],98.8 µM
same,TGI,[2],> 100 µM
same,TGI,[3],> 100 µM
same,TGI,[56],> 100 µM
same,TGI,[37],> 100 µM
same,TGI,[4],> 100 µM
same,TGI,[38],> 100 µM
same,TGI,[39],> 100 µM
same,TGI,[5],> 100 µM
same,TGI,[40],> 100 µM
same,TGI,[57],> 100 µM
same,TGI,[6],> 100 µM
same,TGI,[41],> 67.8 µM
same,TGI,[7],> 100 µM
same,TGI,[42],> 100 µM
same,TGI,[8],> 100 µM
same,TGI,[58],> 100 µM
same,TGI,[10],> 100 µM
same,TGI,[59],> 100 µM
same,TGI,[11],> 100 µM
same,TGI,[12],> 100 µM
same,TGI,[43],> 100 µM
same,TGI,[13],> 100 µM
same,TGI,[44],> 100 µM
same,TGI,[45],> 100 µM
same,TGI,[15],> 100 µM
same,TGI,[16],> 100 µM
same,TGI,[46],> 100 µM
same,TGI,[60],> 100 µM
same,TGI,[61],> 100 µM
same,TGI,[62],> 100 µM
same,TGI,[63],> 100 µM
same,TGI,[17],> 100 µM
same,TGI,[47],> 100 µM
same,TGI,[18],> 100 µM
same,TGI,[19],> 100 µM
same,TGI,[20],> 100 µM
same,TGI,[64],> 100 µM
same,TGI,[48],> 100 µM
same,TGI,[49],> 100 µM
same,TGI,[21],> 100 µM
same,TGI,[22],> 100 µM
same,TGI,[65],> 100 µM
same,TGI,[50],> 100 µM
same,TGI,[23],> 100 µM
same,TGI,[66],> 100 µM
same,TGI,[25],> 100 µM
same,TGI,[67],> 100 µM
same,TGI,[51],> 100 µM
same,TGI,[26],> 100 µM
same,TGI,[52],> 100 µM
same,TGI,[27],> 100 µM
same,TGI,[53],> 100 µM
same,TGI,[28],> 100 µM
same,TGI,[68],> 81.5 µM
same,TGI,[29],> 100 µM
same,TGI,[30],> 100 µM
same,TGI,[54],> 100 µM
same,TGI,[69],> 100 µM
same,TGI,[31],> 100 µM
same,TGI,[32],> 100 µM
same,TGI,[33],> 100 µM
same,TGI,[34],> 100 µM
same,TGI,[35],> 100 µM
same,TGI,[55],> 100 µM
